For assay [1], the system named is U87 cells (expressing IL13RA2). The assay can be described thus: In vitro cytotoxicity of T cells from immunized HHD mice against U87 cells (Example 4). The class given is cell-based. The note with it: CD3+ T cells of mice immunized with the peptide, 72 h co-culture with U87-MG. On the procedure:
Briefly, […] from mice immunized with IL13RA2-H or IL13RA2-B were used. These cells were obtained after sorting of splenocyte from immunized mice and were placed on top of U87 cells (expressing IL13RA2).
In more detail, CD3+ T cells were purified from splenocytes of HHD mice immunized with IL13RA2-H ([…], SEQ ID No 263) or IL13RA2-B ([…]). To this end, B6 β2m^ko HHD/DR3 mice were injected s.c. at tail base with 100 μL of an oil-based emulsion containing vaccination peptide plus helper peptide plus CFA (complete Freund's adjuvant), at day 0 and day 14. On d21, i.e. seven days after the boost injection, the animals were euthanized and the spleen was harvested. Splenocytes were prepared by mechanical disruption of the organ. CD3+ purification was performed using the mouse total T cells isolation kit from Miltenyi biotec using the recommended procedure. Efficient purification of cells and viability was validated by cytometry using appropriate marker for viability, CD8, CD4, CD3, and CD45. […]
72 hours after co-culture of U87-MG cells and CD3+ T cells, all cells from the wells were harvested and specific U87-MG cell death was evaluated after immunostaining of CD45 negative cells with DAPI and fluorescent annexin V followed by cytometry analysis.

For assay [2], the system named is splenocytes of HHD DR3 mice expressing human HLA-A2 and HLA-DR3. The assay can be described thus: IFN-γ ELISpot immunogenicity and cross-reactivity in HHD DR3 mice (Examples 6, 10, 11). To be noted: 100 μg s.c. days 0 and 14, helper peptide DR3 and IFA. The class given is in vivo, mouse. On the procedure: Concanavalin A (ConA) was used as a positive control.
The antigenic peptide of the invention BIRC5-B1 (SEQ ID NO: 289) and the corresponding human peptide BIRC5-H (SEQ ID NO: 286) were tested in distinct groups of male and female HHD DR3 mice expressing human HLA-A2 and HLA-DR3 MHC and lacking the murine H-2 class I and class II MHCs. Groups of 5 mice (male and female) were subcutaneously injected on days 0 and 14 with 100 μg of BIRC5-B1 or BIRC5-H, 150 μg of helper peptide (DR3) and IFA. On day 21, the mice were euthanized and splenocytes were prepared and stimulated in vitro with BIRC5-B1 or the human peptide BIRC5-H to assess their capacity to secrete IFN- as assessed by ELISpot. ConA was used as a positive control.
The antigenic peptide of the invention FOXM1-B2 (SEQ ID NO: 312) and the corresponding human peptide FOXM1-H2 (SEQ ID NO: 293) were tested in distinct groups of male and female HHD DR3 mice expressing human HLA-A2 and HLA-DR3 MHC and lacking the murine H-2 class I and class II MHCs. Groups of 5 mice (male and female) were subcutaneously injected on days 0 and 14 with 100 μg of FOXM1-B2 or FOXM1-H2, 150 μg of helper peptide (DR3) and IFA. On day 21, the mice were euthanized and splenocytes were prepared and stimulated in vitro with FOXM1-B2 or the human corresponding peptide FOXM1-H2 to assess their capacity to secrete IFN- as assessed by ELISpot. ConA was used as a positive control.

Turning to “WLPFGFILI [IL13RA2-H, reference compound]”, the “U87 cell lysis (in words)” value in assay [1] is listed as “not”. Further, the “Immunogenicity, IFN-γ ELISpot SFC (in words)” value in assay [2] is “does not induce an immune response”.

Source of the values: patent US20230105457A1, “Immunogenic Compounds For Treatment Of Adrenal Cancer” (ENTEROME S.A., priority 2019, published 2023).
